# Results from patent US9278968B2, “Imidazopyridine compounds” (ASTELLAS PHARMA INC., priority 2012, dated 2016).
# Legend:
# [1] = biological target: human purified sGC (heterodimer of sGCα1 and sGCβ1) (Homo sapiens (Human), UniProt Q02108+Q02153); experiment: sGC activation test (cGMP produced, HTRF); type: biochemical; details: maximum activity of Preparation Example 200 compound (maximum 100 μM) taken as 100%; with SNP; read-out: EC50 (concentration giving 50% of maximum activity)
# Procedure: The activity of sGC was evaluated by measuring the amount of cGMP produced by human purified sGC.
# Using an sGCα 1 gene (NCBI accession No. BC028384.2) and an sGCβ1 gene (NCBI accession No. BC047620.1), an N-terminal FLAG tag-fused sGCα1 and an sGCβ1 expression baculovirus were prepared. These viruses were transfected into insect cells Sf9 (Cat. No. 11496-015, Gibco) to express a protein. From the cell lysates of the insect cells, heterodimers of the N-terminal FLAG tag-fused sGCα1 and sGCβ1 were purified with an M2 Affinity Gel (Sigma-Aldrich, Inc.) to obtain a human sGC.
# An Example compound was dissolved in DMSO and diluted 20-fold with ultrapure water. 2 μL of the diluted Example compound solution (maximum concentration of 100 μM), 2 μL of a substrate solution [0.5 μM triethanolamine buffer solution, 0.03 μM dithiothreitol, 0.01 μM GTP, 0.04 μM MgCl2, and 0.03 μM sodium nitroprusside (SNP)], and 6 μL of a human enzyme suspension were added to 384-well plates (manufactured by Greiner Bio-One), and incubated at room temperature for one hour. The measurement of the amount of cGMP was carried out, using an HTRF reagent (Cisbio).
# The sGC activation action of the Example compound was calculated as an Example compound concentration which gives 50% of a maximum activity (EC50), in which the maximum activity by the addition of a compound shown in Preparation Example 200, 8-(cyclohexylmethoxy)-N-[(1R)-2-hydroxy-1-phenylethyl]-2-methylimidazo[1,2-a]pyridine-3-carboxamide hydrochloride (maximum 100 μM), is taken as 100%. Further, the maximum activity of sGC with the addition of 8-(cyclohexylmethoxy)-N-[(1R)-2-hydroxy-1-phenylethyl]-2-methylimidazo[1,2-a]pyridine-3-carboxamide hydrochloride is 10-fold or more relative to the sGC activation without the addition of the compound, and it is recognized that the compound has a good sGC activating action. […] The test results of some Example compounds that are the compounds of the formula (I) of the present invention are shown below. Further, in Tables, Ex. represents Example number.
# [2] = test system: average blood pressure of rats; experiment: Measurement of antihypertensive effect in vivo; parameters: species or system Wistar male rats; details: oral
# Procedure: As the animals, Wistar male rats, 13- to 18-week (Japan SLC, Inc.) were used. Three days prior to administration of a test compound, a cannula (PE-50, Becton, Dickinson and Company, Japan) filled with heparin physiological saline (200 U/mL, Ajinomoto Pharmaceuticals Co., Ltd.) was inserted and placed in the common carotid artery under anesthesia with intraperitoneal administration of 60 mg/kg of pentobarbital. The other end of the cannula was subcutaneously exposed to the back of the neck. After the recovery period, the placed cannula was connected to a pressure transducer (Life Kit DTS DX-100, Nihon Kohden Corporation) to record the blood pressure waveform through an amplifier (AP-641G, Nihon Kohden Co., Ltd.) and PowerLab (ML870 PowerLab8/30 (AD Instruments Japan)). The heart rate was calculated using a heart rate measuring unit (AT-601G, Nihon Kohden Co., Ltd.). After stabilization of the blood pressure, the test compound was orally administered one time to measure the blood pressure and the heart rate over time. The test compounds were administered by appropriately adding N,N-dimethylformamide, Polyethylene Glycol 400, TWEEN 80, a 0.5% aqueous methylcellulose solution, and a 0.5 M aqueous sodium hydrogen carbonate solution, and 0.1 M hydrochloric acid therein according to the compounds and dissolving it.
# Further, the administration doses in Tables represent the administration doses for oral administration, and for example, 3 means 3 mg/kg. Further, the blood pressure reduction represents a maximum change value from the value before administration in the average blood pressure, and for example, −63 indicates reduction by 63 mmHg.
# [3] = test system: hind limb blood flow in rats anesthetized with pentobarbital; experiment: Blood flow increasing action in vivo (hind limb blood flow, anesthetized rats); parameters: species or system Wistar male rats; details: oral, 2 hours after administration, effective when blood flow rate 130% or more of solvent group
# Procedure: The hind limb blood flow increasing action in rats anesthetized with pentobarbital was confirmed by the following test method.
# Wistar male rats, 11- to 14-week (Japan SLC, Inc.) were used. An administration liquid was prepared by adding N,N-dimethyl formamide, Polyethylene Glycol 400, TWEEN 80, a 0.5% methyl cellulose aqueous solution, a 0.5 M aqueous sodium hydrogen carbonate solution, and 0.1 M hydrochloric acid to the test compound and dissolving the Example compound in an appropriate manner depending on the compound. The prepared administration liquid was orally administered, and 2 hours later, the hind limb blood flow increasing action was evaluated under anesthesia with intraperitoneally administration of 60 mg/kg of pentobarbital The hind limb blood flow was measured using a laser blood flow imaging device (PIM II Integral). By taking the average blood flow rate of a group with the administration of a solvent as 100%, the compound was evaluated to be effective when the blood flow rate was 130% or more by the administration of the compound.
# Chain of human purified sGC (heterodimer of sGCα1 and sGCβ1) (Q02108 whole entry): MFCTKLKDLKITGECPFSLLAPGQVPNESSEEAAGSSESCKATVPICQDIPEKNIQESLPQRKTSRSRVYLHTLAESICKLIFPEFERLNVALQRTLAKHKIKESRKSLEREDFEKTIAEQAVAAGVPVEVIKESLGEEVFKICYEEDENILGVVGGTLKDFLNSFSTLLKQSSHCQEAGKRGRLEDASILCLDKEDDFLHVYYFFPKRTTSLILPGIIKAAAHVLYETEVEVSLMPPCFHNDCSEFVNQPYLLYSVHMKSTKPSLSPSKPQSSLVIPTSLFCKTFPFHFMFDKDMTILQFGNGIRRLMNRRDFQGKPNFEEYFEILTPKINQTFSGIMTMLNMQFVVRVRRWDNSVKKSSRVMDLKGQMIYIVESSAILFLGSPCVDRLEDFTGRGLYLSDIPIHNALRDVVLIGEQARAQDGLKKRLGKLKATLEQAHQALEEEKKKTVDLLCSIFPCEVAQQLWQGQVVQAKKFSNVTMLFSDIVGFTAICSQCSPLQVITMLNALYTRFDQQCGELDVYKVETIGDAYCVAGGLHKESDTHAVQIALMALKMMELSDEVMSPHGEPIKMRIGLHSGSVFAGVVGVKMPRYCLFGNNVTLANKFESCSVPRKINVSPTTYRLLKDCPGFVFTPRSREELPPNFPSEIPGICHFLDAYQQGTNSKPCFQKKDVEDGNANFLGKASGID
# Chain of human purified sGC (heterodimer of sGCα1 and sGCβ1) (Q02153 whole entry): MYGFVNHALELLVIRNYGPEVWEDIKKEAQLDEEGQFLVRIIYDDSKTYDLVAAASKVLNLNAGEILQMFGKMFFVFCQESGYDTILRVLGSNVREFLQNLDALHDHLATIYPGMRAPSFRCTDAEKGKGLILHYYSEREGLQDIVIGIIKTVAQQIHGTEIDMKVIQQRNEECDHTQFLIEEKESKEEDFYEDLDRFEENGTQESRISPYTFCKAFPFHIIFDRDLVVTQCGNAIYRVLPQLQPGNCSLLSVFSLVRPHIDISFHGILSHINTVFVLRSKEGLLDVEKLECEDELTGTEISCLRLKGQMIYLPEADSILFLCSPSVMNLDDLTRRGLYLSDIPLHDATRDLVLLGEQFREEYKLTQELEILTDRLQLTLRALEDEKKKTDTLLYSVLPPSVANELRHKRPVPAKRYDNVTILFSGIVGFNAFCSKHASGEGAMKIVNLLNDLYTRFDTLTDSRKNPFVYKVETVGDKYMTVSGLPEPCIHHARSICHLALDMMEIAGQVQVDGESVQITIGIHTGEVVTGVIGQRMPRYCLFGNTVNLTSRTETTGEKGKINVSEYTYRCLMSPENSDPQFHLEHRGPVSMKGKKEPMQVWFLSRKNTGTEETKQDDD
SMILES,EC50 [1],Blood pressure reduction (maximum change from value before administration in average blood pressure) ([2]; single dose 3 mg/kg),hind limb blood flow increasing action ([3]; 3 mg/kg),hind limb blood flow increasing action ([3]; 0.3 mg/kg),hind limb blood flow increasing action ([3]; 1 mg/kg),Blood pressure reduction (maximum change from value before administration in average blood pressure) ([2]; single dose 1 mg/kg)
"Cc1ncc(C(C)(CO)NC(=O)c2c(C)nc3c(OCc4c(F)cccc4F)cccn23)s1 (centres unmarked) [Example 2, 8-[(2,6-difluorobenzyl)oxy]-N-[1-hydroxy-2-(2-methyl-1,3-thiazol-5-yl)propan-2-yl]-2-methylimidazo[1,2-a]pyridine-3-carboxamide]",2.6 µM,−56 mmHg,exhibited a blood flow increasing action,,,
"Cc1nc2c(OCc3c(F)cccc3F)cccn2c1C(=O)NC(C)(CO)c1nnn(C)n1 (centres unmarked) [Example 7a, 8-[(2,6-difluorobenzyl)oxy]-N-[1-hydroxy-2-(2-methyl-2H-tetrazol-5-yl)propan-2-yl]-2-methylimidazo[1,2-a]pyridine-3-carboxamide]",9.6 µM,,exhibited a blood flow increasing action,,,
"CCn1nnc(C(C)(CO)NC(=O)c2c(C)nc3c(OCc4c(F)cccc4F)cccn23)n1 (centres unmarked) [Example 8, 8-[(2,6-difluorobenzyl)oxy]-N-[2-(2-ethyl-2H-tetrazol-5-yl)-1-hydroxypropan-2-yl]-2-methylimidazo[1,2-a]pyridine-3-carboxamide]",5.7 µM,−29 mmHg,exhibited a blood flow increasing action,,,
Cc1nc2c(OCc3c(F)cccc3F)cccn2c1C(=O)N[C@@](C)(CO)c1ccccc1 [Example 9],0.72 µM,−63 mmHg,,exhibited a blood flow increasing action,,
Cc1nc2c(OCc3c(F)cccc3F)cccn2c1C(=O)N[C@@](C)(CO)c1ccccn1 [Example 11],1.3 µM,,,,exhibited a blood flow increasing action,
Cc1nc2c(OCc3c(F)cccc3F)cccn2c1C(=O)N[C@@](C)(CO)c1ccccc1F [Example 18],1.6 µM,,,,exhibited a blood flow increasing action,
Cc1nc2c(OCc3c(F)cccc3F)cccn2c1C(=O)N[C@@](C)(CO)c1ncc(CO)s1 [Example 19],3.6 µM,,,,exhibited a blood flow increasing action,
Cc1nc2c(OCc3c(F)cccc3F)cccn2c1C(=O)NCc1ccccc1[C@@H](O)[C@@H](C)O [Example 31],4.9 µM,,exhibited a blood flow increasing action,,,
Cc1nnc(C(C)(CO)NC(=O)c2c(C)nc3c(OCc4c(F)cccc4F)cccn23)o1 (centres unmarked) [Example 35],6.4 µM,,,exhibited a blood flow increasing action,,
Cc1nc2c(OCc3c(F)cccc3F)cccn2c1C(=O)NC(C)(CO)c1ccn(C)n1 (centres unmarked) [Example 36],11 µM,,,,exhibited a blood flow increasing action,
Cc1nnc(C(C)(CO)NC(=O)c2c(C)nc3c(OCc4c(F)cccc4F)cccn23)s1 (centres unmarked) [Example 37],7.1 µM,,,,exhibited a blood flow increasing action,
Cc1cnc(C(C)(CO)NC(=O)c2c(C)nc3c(OCc4c(F)cccc4F)cccn23)o1 (centres unmarked) [Example 38],2.5 µM,,,,exhibited a blood flow increasing action,
Cc1noc(C(C)(CO)NC(=O)c2c(C)nc3c(OCc4c(F)cccc4F)cccn23)n1 (centres unmarked) [Example 39],4.6 µM,,,,exhibited a blood flow increasing action,
Cc1csc(C(C)(CO)NC(=O)c2c(C)nc3c(OCc4c(F)cccc4F)cccn23)n1 (centres unmarked) [Example 40],3.8 µM,,exhibited a blood flow increasing action,,,
Cc1nc(C(C)(CO)NC(=O)c2c(C)nc3c(OCc4c(F)cccc4F)cccn23)no1 (centres unmarked) [Example 41],5.3 µM,,,exhibited a blood flow increasing action,,
Cc1nc2c(OCc3c(F)cccc3F)cccn2c1C(=O)NC(C)(CO)c1ccc(F)c(CO)c1 (centres unmarked) [Example 52],2.2 µM,,exhibited a blood flow increasing action,,,
Cc1nc2c(OCc3c(F)cccc3F)cccn2c1C(=O)NC(CO)(CO)c1ccc(F)cc1 [Example 54],2.7 µM,−56 mmHg,exhibited a blood flow increasing action,,,
Cc1nc2c(OCc3c(F)cccc3F)cccn2c1C(=O)N[C@]1(c2ccccn2)C[C@@H](O)[C@@H](O)C1 [Example 67],24 µM,,exhibited a blood flow increasing action,,,
Cc1cnc([C@@]2(NC(=O)c3c(C)nc4c(OCc5c(F)cccc5F)cccn34)C[C@@H](O)[C@@H](O)C2)s1 [Example 69],4.6 µM,,exhibited a blood flow increasing action,,,
Cc1nc2c(OCc3c(F)cccc3F)cccn2c1C(=O)NC(CO)(CO)c1ccc(Cl)cn1 [Example 70],3.8 µM,,,,exhibited a blood flow increasing action,
Cc1cnc(C(CO)(CO)NC(=O)c2c(C)nc3c(OCc4c(F)cccc4F)cccn23)s1 [Example 72],2.7 µM,,,,exhibited a blood flow increasing action,
Cc1nc2c(OCc3c(F)cccc3F)cccn2c1C(=O)NC(C)(CO)c1nnn(C2CC2)n1 (centres unmarked) [Example 76],5.8 µM,,exhibited a blood flow increasing action,,,
Cc1cnc([C@](C)(CO)NC(=O)c2c(C)nc3c(OCc4c(F)cccc4F)cccn23)s1 [Example 77],1.3 µM,,,exhibited a blood flow increasing action,,
CCn1nnc([C@H](CO)NC(=O)c2c(C)nc3c(OCc4c(F)cccc4F)cccn23)n1 [Example 81],16 µM,,,,exhibited a blood flow increasing action,
Cc1nc2c(OCc3c(F)cccc3F)cccn2c1C(=O)N[C@@H](CO)c1nnn(C(F)F)n1 [Example 83],2.7 µM,,,,exhibited a blood flow increasing action,
Cc1nc2c(OCc3c(F)cccc3F)cccn2c1C(=O)NC(C)(CO)c1nnc(C(F)(F)F)o1 (centres unmarked) [Example 91],1.5 µM,,,exhibited a blood flow increasing action,,
Cc1nc2c(OCc3c(F)cccc3F)cccn2c1C(=O)NC(CO)(CO)c1nnn(C(F)F)n1 [Example 96],3.4 µM,,,exhibited a blood flow increasing action,,−21 mmHg
